These antisense oligonucleotides have a phosphorothioate backbone; sugars and methylation of C are not fully specified.
biological target: CD44; conditions: ASO
Also: test concentration or dose not given here.

| Sequence | remaining target (mRNA or protein) (fraction of control) |
| --- | --- |
| AAAGGTTGGCGATCAGGA | ≥ 1 |
| AAATCCGATGCTCAGAGC | ≥ 1 |
| AACCCTGGGAAATGTCCT | ≥ 1 |
| AAGCCAAGGCCAAGAGGG | ≥ 1 |
| AAGGCATTGGGCAGGTCT | 0.99 |
| AATGTCCTTAGCTGGTGG | ≥ 1 |
| ACAGCTCCATTGCCACTG | ≥ 1 |
| ACCAGGCCCTATTAACCC | ≥ 1 |
| ACGTGGAATACACCTGCA | ≥ 1 |
| AGAGCTTTCTCCATCTGG | ≥ 1 |
| AGAGGGATGCCAAGATGA | ≥ 1 |
| AGATTCGCAATGAAACAA | ≥ 1 |
| AGCAATGCCCAGGGATTA | ≥ 1 |
| AGCCATCCATAGCACACC | 0.97 |
| AGCCGCTGCTCACGTCAT | ≥ 1 |
| AGGACTGATCCAGGGTTT | 0.83 |
| AGGTCTCAAATCCGATGC | ≥ 1 |
| AGTGGAAAGCAATGCCCA | ≥ 1 |
| ATAGCACACCCGAGGATG | ≥ 1 |
| ATCAGTAGGGTTGCTGGG | ≥ 1 |
| ATCCAGGGACTGTCTTCG | ≥ 1 |
| ATCCATAGCACACCCGAG | ≥ 1 |

| Sequence | remaining target (mRNA or protein) (fraction of control) |
| --- | --- |
| CAACGGTTGTTTCTTTCC | ≥ 1 |
| CAAGGTGCTATTGAAAGC | 0.92 |
| CAGGGATTAGGCTATGGA | ≥ 1 |
| CCAACCTCAGTGGAAAGC | ≥ 1 |
| CCACATGCCCTTCTATGA | 0.9 |
| CCATTTCCTGAGACTTGC | ≥ 1 |
| CCCACACCTTCTTCGACT | 0.94 |
| CCTTTGGTGTCTCCCAGA | ≥ 1 |
| CGATCTGCGCCAGGCTCA | 0.72 |
| CGGAGCGAACGGAGGGCG | ≥ 1 |
| CGTCCGAGAGATGCTGTA | 0.52 |
| CGTTGAGTCCACTTGGCT | ≥ 1 |
| CTCAGCGGCACGAGGCAG | 0.91 |
| CTGGACATAGCGGGTGCC | ≥ 1 |
| CTGTCTTCGTCTGGGATG | ≥ 1 |
| CTGTGCTGTCGGTGATCC | ≥ 1 |
| CTTGTTCACCAAATGCAC | ≥ 1 |
| GAAAGCCTTGCAGAGGTC | 0.9 |
| GACGACTCCTTGTTCACC | ≥ 1 |
| GACTGTTGACTGCAATGC | ≥ 1 |
| GACTTGCTGGCCTCTCCG | ≥ 1 |
| GATTAGGCTATGGAAGGG | ≥ 1 |

biological target: SRA1; conditions: ASO

| Sequence | remaining target (mRNA or protein) (fraction of control) |
| --- | --- |
| CCCGGCTTCACGTACAGC | 0.63 |
| CCGCGTTCCTTGTTGCCG | 0.94 |
| CCTCTGAAAACAGACTCC | 0.71 |
| CCTGCTGGAAGCCTGGTA | ≥ 1 |
| CCTGCTTCCTTGTGTGGC | 0.66 |
| CCTGGGTCCGCCGGCCTG | 0.86 |
| CCTTGTGTGGCCACGGCA | 0.43 |
| CGAGCGCCTGGGTCCGCC | 0.48 |
| CGGCAGTCTTCCAATGCC | ≥ 1 |
| CGTATGAGAACTGCGGCG | ≥ 1 |
| CGTCGGCTGATGTCATCA | 0.61 |
| CTCAGCTGTGGCTGCAGA | ≥ 1 |
| CTCCAGCCCACTGTTCCT | ≥ 1 |
| CTCCATCAGTCGAGCCTC | ≥ 1 |
| CTCCTACCATCCACTGAC | 0.46 |
| CTCGACTGGGAAACTTGT | 0.63 |
| CTCTGGCCCAGGTGGGAC | 0.55 |
| CTGAAAACAGACTCCTCT | 0.56 |
| CTGACCTCAGTCACATGG | ≥ 1 |
| CTGCTGCGTCCCACCGGT | 0.21 |
| CTGCTGGAAGCCTGGTAT | 0.77 |
| CTTCATTGGCTGCCTCCT | 0.2 |
| CTTCCCTCATAGGTGGGT | ≥ 1 |
| CTTTCCTCCAGCCCACTG | 0.36 |
| CTTTCCTTTTGTTGAGGG | ≥ 1 |

| Sequence | remaining target (mRNA or protein) (fraction of control) |
| --- | --- |
| CTTTTAACTCCTACCATC | 0.43 |
| CTTTTCTGCAATTAATCT | 0.61 |
| GACACCAGAGGGACTAGC | 0.73 |
| GACCACTCCCCACAGGTG | ≥ 1 |
| GAGCCTCAGACTCGACTG | 0.65 |
| GAGGCCCAGGAGAAGTCT | 0.62 |
| GAGGCCCGGAACTCCACT | 0.89 |
| GAGGGAGCGGTGGATGTC | 0.48 |
| GAGGGTCCATACTAAGCG | 0.53 |
| GCACCAGTAGAGCCATTC | 0.3 |
| GCCAGAGGCAGGACCACT | 0.72 |
| GCCAGGCGTCGGCTGATG | 0.38 |
| GCTCCACGCCAGAGGCAG | 0.49 |
| GCTCCGCCCAGCACAGGA | 0.37 |
| GCTGTGGCTGCAGATTTC | 0.48 |
| GCTTGAAAGCTCTTGCAC | ≥ 1 |
| GGAACCGAGGATTATGAA | 0.68 |
| GGAGCCAAGTGACAGAAG | 0.86 |
| GGAGCCTTACTTGAAGGA | 0.54 |
| GGATGCTTGTTCAGTCTA | ≥ 1 |
| GGCACCGGAAGGAGATGG | 0.43 |
| GGCCCAGGAGAAGTCTCT | ≥ 1 |
| GGCCTGGGTCTGCAGCCC | 0.94 |
| GGCGTCGGCTGATGTCAT | 0.42 |
| GGGAGCCTTACTTGAAGG | 0.88 |

| Sequence | remaining target (mRNA or protein) (fraction of control) |
| --- | --- |
| GGGTCAGGCCCAGTGGGA | ≥ 1 |
| GGGTCCGCCGGCCTGGGT | ≥ 1 |
| GGTGGTGGTAAGAAGGGA | ≥ 1 |
| GGTGTCCGGTGAGTCTGG | 0.5 |
| GGTTCTTCTCAGCTGTGG | 0.49 |
| GTAGGCAGTAGTCTGACT | 0.42 |
| GTATCTCAAGGGTGATAC | 0.6 |
| GTATGGTATGGTTCTTCT | 0.94 |
| GTCGGCTGATGTCATCAC | ≥ 1 |
| GTCTGCAGCCCGTATGAG | ≥ 1 |
| GTGGATGTCATCTGCTGC | ≥ 1 |
| TATGAAGCCTGCTGGAAG | 0.64 |
| TCACATGGTCAACCATGA | 0.93 |
| TCAGCACATCCTCCATCA | 0.97 |
| TCAGTCACATGGTCAACC | 0.5 |
| TCCAAAGGTCTCAGCACA | 0.26 |
| TCTCCAAGGCATAGGAGA | 0.8 |
| TCTGAAAACAGACTCCTC | 0.99 |
| TCTGCTGCGTCCCACCGG | 0.32 |
| TGAAAGCTCTTGCACCAG | 0.64 |
| TGAAGGAGGTGGAGGCCC | ≥ 1 |
| TGAATGGAGAAGGGAGAA | 0.75 |
| TGACAACTTTCCTCCAGC | 0.15 |
| TGACAGAAGGTCTCCAAG | 0.81 |
| TGCTGCGTCCCACCGGTG | 0.27 |

| Sequence | remaining target (mRNA or protein) (fraction of control) |
| --- | --- |
| TGCTGGAAGCCTGGTATG | 0.28 |
| TGGCCACGGCAGTCTTCC | 0.52 |
| TGGTAAGCAGCGAGCGCC | 0.74 |
| TGGTATGGTTCTTCTCAG | 0.58 |
| TGTCATCACATACCTGCT | 0.76 |
| TGTGTGGCCACGGCAGTC | 0.47 |
| TGTTCCTGCAGCAGTGCC | 0.39 |
| TTCCAAAGGTCTCAGCAC | 0.49 |
| TTCCAGCCGCGTTCCTTG | ≥ 1 |
| TTCCTGCAGCAGTGCCAG | 0.45 |
| TTCCTTGTTGCCTGCGGA | 0.72 |
| TTCTCATGCTGAAATGAA | 0.74 |
| TTCTGCAATTAATCTTTT | 0.59 |
| TTCTTTACAGGTATTGAC | ≥ 1 |
| TTGGCTGCCTCCTCTGAA | 0.58 |
| TTGGTAAGCAGCGAGCGC | 0.56 |
| TTTAACTCCTACCATCCA | 0.89 |
| TTTACAGGTATTGACAAC | ≥ 1 |
| TTTCACCGCAGAGATGTT | ≥ 1 |
| TTTCTCTTCATTGGCTGC | 0.38 |
| TTTCTGCAATTAATCTTT | ≥ 1 |
| TTTTAACTCCTACCATCC | ≥ 1 |

From the OligoGym collection
